Experimental data as given in patent publication US7803930B2, “Antisense modulation of apolipoprotein B-expression” (Isis Pharmaceuticals, Inc., priority 2002, dated 2010).
In the oligonucleotide strings, read from the 5' end, every base follows the letter of its sugar. An asterisk marks phosphorothioate; unmarked linkages are phosphodiester. Other units and linkages are bracketed, terminal groups are in braces. A string of capitals states the bases alone. e = 2'-O-(2-methoxyethyl) (MOE); [5mC] = 5-methylcytosine; d = 2'-deoxy (DNA)

Assays:
[1] = system: rabbit apolipoprotein B mRNA; assay: Inhibition of rabbit apolipoprotein B mRNA levels in primary rabbit hepatocytes, real-time PCR; format: cell-based; parameters: % INHIB of rabbit apolipoprotein B mRNA levels: concentration or dose not given beside the values; settings: for Percent Inhibition of rabbit apolipoprotein B mRNA levels: averages from two experiments
Source text: Primary rabbit hepatocytes were purchased from Invitro Technologies (Gaithersburg, Md.) and maintained in Dulbecco's modified Eagle's medium (Gibco). When purchased, the cells had been seeded into 96-well plates for use in RT-PCR analysis and were confluent.
In accordance with the present invention, a series of oligonucleotides was designed to target different regions of rabbit apolipoprotein B, using published sequences (GenBank accession number X07480.1, incorporated herein as SEQ ID NO: 808, GenBank accession number M17780.1, incorporated herein as SEQ ID NO: 809, and a sequence was derived using previously described primers (Tanaka, Journ. Biol. Chem., 1993,268, 12713-12718) representing an mRNA of the rabbit apolipoprotein B, incorporated herein as SEQ ID NO: 810). “Target site” indicates the first (5′-most) nucleotide number on the particular target sequence to which the oligonucleotide binds. All compounds in Table 21 are chimeric oligonucleotides (“gapmers”) 20 nucleotides in length, composed of a central “gap” region consisting of ten 2′-deoxynucleotides, which is flanked on both sides (5′ and 3′ directions) by five-nucleotide “wings”. The wings are composed of 2′-methoxyethyl (2′-MOE)nucleotides. The internucleoside (backbone) linkages are phosphorothioate (P═S) throughout the oligonucleotide. All cytidine residues are 5-methylcytidines. The compounds were analyzed for their effect on rabbit apolipoprotein B mRNA levels in primary rabbit hepatocytes by quantitative real-time PCR as described in other examples herein. Primary rabbit hepatocytes were treated with 150 nM of the compounds in Table 21. For rabbit apolipoprotein B the PCR primers were: • forward primer: AAGCACCCCCAATGTCACC (SEQ ID NO: 811) • reverse primer: […] (SEQ ID NO: 812) and the PCR probe was: FAM-[…]-TAMRA (SEQ ID NO: 813) where FAM (PE-Applied Biosystems, Foster City, Calif.) is the fluorescent reporter dye) and TAMRA (PE-Applied Biosystems, Foster City, Calif.) is the quencher dye. Data are averages from two experiments. If present, “N.D.” indicates “no data”.
In accordance with the present invention, a subset of the antisense oligonuclotides in Example 42 was further investigated in dose-response studies. Treatment doses were 10, 50, 150 and 300 nM. ISIS 233160 (SEQ ID NO: 824), ISIS 233166 (SEQ ID NO: 830), ISIS 233172 (SEQ ID NO: 835), ISIS 233175 (SEQ ID NO: 838), and ISIS 233183 (SEQ ID NO: 846) were analyzed for their effect on rabbit apolipoprotein B mRNA levels in primary rabbit hepatocytes by quantitative real-time PCR as described in other examples herein.

[2] = system: human apolipoprotein B mRNA; assay: Inhibition of human apolipoprotein B mRNA levels in HepG2 cells, quantitative real-time PCR; format: cell-based; settings: HepG2 cells; for % Change in apolipoprotein B mRNA expression: 24 hour (Table 41)
Summary of the method: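 HepG2 cells at 80% confluency were transfected with antisense oligonucleotide using 3.75 μg/mL Lipofectin in Opti-MEM for 4-7 h and harvested 16-24 h after treatment. Apolipoprotein B mRNA was measured by real-time RT-PCR and normalized to GAPDH or RiboGreen total RNA. Percent inhibition came from untreated-control standard curves.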

| Substance | % INHIB of rabbit apolipoprotein B mRNA levels [1] | other results |
| --- | --- | --- |
| 233149 (antisense eT*eG*e[5mC]*eT*eT*dG*dG*dA*dG*dA*dA*dG*dG*dT*dA*eA*eG*eA*eT*e[5mC]) [compound 233149] | 0% |  |
| 233150 (antisense eG*e[5mC]*eG*eT*eT*dG*dT*d[5mC]*dT*d[5mC]*d[5mC]*dG*dA*dT*dG*eT*eT*e[5mC]*eT*eG) [compound 233150] | 20% |  |
| 233151 (antisense eT*eA*eA*eT*e[5mC]*dA*dT*dT*dA*dA*d[5mC]*dT*dT*dG*d[5mC]*eT*eG*eT*eG*eG) [compound 233151] | 20% |  |
| 233152 (antisense eT*e[5mC]*eA*eG*e[5mC]*dA*d[5mC]*dG*dT*dA*dG*d[5mC]*dA*dA*dT*eG*e[5mC]*eA*eT*eT) [compound 233152] | 0% |  |
| 233153 (antisense eG*e[5mC]*e[5mC]*eT*eG*dA*dT*dA*d[5mC]*dT*d[5mC]*dA*dG*d[5mC]*dA*e[5mC]*eG*eT*eA*eG) [compound 233153] | 0% |  |
| 233154 (antisense e[5mC]*eA*eA*eT*eT*dG*dA*dA*dT*dG*dT*dA*d[5mC]*dT*d[5mC]*eA*eG*eA*eT*eA) [compound 233154] | 18% |  |
| 233155 (antisense eA*e[5mC]*e[5mC]*eT*e[5mC]*dA*dG*dT*dG*dA*d[5mC]*dT*dT*dG*dT*eA*eA*eT*e[5mC]*eA) [compound 233155] | 47% |  |
| 233156 (antisense e[5mC]*eA*e[5mC]*eT*eG*dG*dA*dA*dA*d[5mC]*dT*dT*dG*dT*d[5mC]*eT*e[5mC]*eT*e[5mC]*e[5mC]) [compound 233156] | 23% |  |
| 233157 (antisense eA*eG*eT*eA*eG*dT*dT*dA*dG*dT*dT*dT*d[5mC]*dT*d[5mC]*e[5mC]*eT*eT*eG*eG) [compound 233157] | 0% |  |
| 233159 (antisense eT*e[5mC]*eA*eG*eT*dG*d[5mC]*d[5mC]*d[5mC]*dA*dA*dG*dA*dT*dG*eT*e[5mC]*eA*eG*e[5mC]) [compound 233159] | 0% |  |
| 233160 (antisense eA*eT*eT*eG*eG*dA*dA*dT*dA*dA*dT*dG*dT*dA*dT*e[5mC]*e[5mC]*eA*eG*eG) [compound 233160] | 81% | Percent Inhibition of rabbit apolipoprotein B mRNA levels ([1]; 10 nM): 33%; Percent Inhibition of rabbit apolipoprotein B mRNA levels ([1]; 50 nM): 67%; Percent Inhibition of rabbit apolipoprotein B mRNA levels ([1]; 150 nM): 74%; Percent Inhibition of rabbit apolipoprotein B mRNA levels ([1]; 300 nM): 80% |
| 233161 (antisense eT*eT*eG*eG*e[5mC]*dA*dT*dT*dA*dT*d[5mC]*d[5mC]*dA*dA*dT*eG*e[5mC]*eA*eG*eT) [compound 233161] | 28% |  |
| 233162 (antisense eG*eT*eT*eG*e[5mC]*d[5mC]*dT*dT*dG*dT*dG*dA*dG*d[5mC]*dA*eG*e[5mC]*eA*eG*eT) [compound 233162] | 0% |  |
| 233163 (antisense eA*eT*eT*eG*eT*dG*dA*dG*dT*dG*dG*dA*dG*dA*dT*eA*e[5mC]*eT*eT*e[5mC]) [compound 233163] | 80% |  |
| 233164 (antisense e[5mC]*eA*eT*eA*eT*dG*dT*d[5mC]*dT*dG*dA*dA*dG*dT*dT*eG*eA*eG*eA*e[5mC]) [compound 233164] | 8% |  |
| 233165 (antisense eG*eT*eA*eG*eA*dT*dA*d[5mC]*dT*d[5mC]*d[5mC]*dA*dT*dT*dT*eT*eG*eG*e[5mC]*e[5mC]) [compound 233165] | 0% |  |

| Substance | % INHIB of rabbit apolipoprotein B mRNA levels [1] | other results |
| --- | --- | --- |
| 233166 (antisense eG*eG*eA*eT*e[5mC]*dA*d[5mC]*dA*dT*dG*dA*d[5mC]*dT*dG*dA*eA*eT*eG*e[5mC]*eT) [compound 233166] | 82% | Percent Inhibition of rabbit apolipoprotein B mRNA levels ([1]; 10 nM): 66%; Percent Inhibition of rabbit apolipoprotein B mRNA levels ([1]; 50 nM): 81%; Percent Inhibition of rabbit apolipoprotein B mRNA levels ([1]; 150 nM): 79%; Percent Inhibition of rabbit apolipoprotein B mRNA levels ([1]; 300 nM): 73% |
| 233167 (antisense eT*e[5mC]*eA*eA*eG*d[5mC]*dT*dG*dG*dT*dT*dG*dT*dT*dG*e[5mC]*eA*e[5mC]*eT*eG) [compound 233167] | 28% |  |
| 233168 (antisense eG*eG*eA*e[5mC]*eT*dG*dT*dA*d[5mC]*d[5mC]*dT*d[5mC]*dA*dA*dG*e[5mC]*eT*eG*eG*eT) [compound 233168] | 0% |  |
| 233169 (antisense eG*e[5mC]*eT*e[5mC]*eA*dT*dT*d[5mC]*dT*d[5mC]*d[5mC]*dA*dG*d[5mC]*dA*eT*e[5mC]*eA*eG*eG) [compound 233169] | 14% |  |
| 233170 (antisense eT*eT*eG*eA*eT*d[5mC]*dT*dA*dT*dA*dA*dT*dA*d[5mC]*dT*eA*eG*e[5mC]*eT*eA) [compound 233170] | 23% |  |
| 233173 (antisense eT*eT*eG*eT*eG*dT*dT*d[5mC]*d[5mC]*dT*dT*dG*dA*dA*dG*e[5mC]*eG*eG*e[5mC]*e[5mC]) [compound 233173] | 3% |  |
| 233174 (antisense eT*eG*eT*eG*e[5mC]*dA*d[5mC]*dG*dG*dA*dT*dA*dT*dG*dA*eT*eA*eA*e[5mC]*eG) [compound 233174] | 21% |  |
| 233176 (antisense eG*eA*eA*eA*eT*d[5mC]*dT*dG*dG*dA*dA*dG*dA*dG*dA*eG*eA*e[5mC]*e[5mC]*eT) [compound 233176] | 62% |  |
| 233177 (antisense eG*eT*eA*eG*e[5mC]*dT*dT*dT*d[5mC]*d[5mC]*d[5mC]*dA*dT*d[5mC]*dT*eA*eG*eG*e[5mC]*eT) [compound 233177] | 0% |  |
| 233178 (antisense eG*eA*eT*eA*eA*d[5mC]*dT*d[5mC]*dT*dG*dT*dG*dA*dG*dG*eG*eT*eA*eG*e[5mC]) [compound 233178] | 0% |  |
| 332781 (antisense CTCAGTCTGCTTCGCA; sugars from the 5' end e3 d10 e3, all phosphorothioate, methylation of C not given here) [compound 332781] |  | % Change in apolipoprotein B mRNA expression ([2]; 10 nM): −9%; % Change in apolipoprotein B mRNA expression ([2]; 50 nM): −35%; % Change in apolipoprotein B mRNA expression ([2]; 150 nM): −60% |
| 332782 (antisense TCAGTCTGCTTCGC; all phosphorothioate, sugars by position and methylation of C not given here; 2'-MOE wings flank a DNA gap) [compound 332782] |  | % Change in apolipoprotein B mRNA expression ([2]; 10 nM): −16%; % Change in apolipoprotein B mRNA expression ([2]; 50 nM): −16%; % Change in apolipoprotein B mRNA expression ([2]; 150 nM): −69% |
| 332784 (antisense GCCTCAGTCT; linkages s4 o1 s4 (s phosphorothioate, o phosphodiester), sugars by position and methylation of C not given here; 2'-MOE wings flank a DNA gap) [compound 332784] |  | % Change in apolipoprotein B mRNA expression ([2]; 10 nM): +12%; % Change in apolipoprotein B mRNA expression ([2]; 50 nM): −1%; % Change in apolipoprotein B mRNA expression ([2]; 150 nM): +7% |
| 332785 (antisense GCTTCGCACC; linkages s4 o1 s4 (s phosphorothioate, o phosphodiester), sugars by position and methylation of C not given here; 2'-MOE wings flank a DNA gap) [compound 332785] |  | % Change in apolipoprotein B mRNA expression ([2]; 10 nM): +5%; % Change in apolipoprotein B mRNA expression ([2]; 50 nM): −2%; % Change in apolipoprotein B mRNA expression ([2]; 150 nM): −4% |
| ISIS 332770: ISIS 301012 derivative with a single thymidine to cytosine substitution in the center of the oligonucleotide (GCCTCAGTCTTCTTCGCACC; sugars from the 5' end e5 d10 e5, all phosphorothioate, methylation of C not given here) |  | potency relative to ISIS 301012 (fold less potent) ([2]; 50 or 150 nM, 24 hours): 3 fold |
